Source: ChEMBL document CHEMBL1201862, “PubChem BioAssay data set” (2004)
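All cell lines were grown in 96-well plates and treated with compound for 48 hours. At the GI50, growth is halved.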 Active and inactive are the calls of the source. Cut-off read from the data, not from the text of the source: active = GI50 up to about 1.1 µM and inactive = higher.

Columns and labels:
Assay in all cases: growth of human tumour cells (NCI), 48 h
[1] = tested on: SNB-75
[2] = tested on: COLO 205
[3] = tested on: U-251
[4] = tested on: UO-31
[5] = tested on: BT-549
[6] = tested on: Malme-3M
[7] = tested on: MOLT-4
[8] = tested on: NCI-H23
[9] = tested on: OVCAR-3
[10] = tested on: HCT-15
[11] = tested on: HOP-92
[12] = tested on: MDA-N
[13] = tested on: OVCAR-8
[14] = tested on: UACC-62
[15] = tested on: A549
[16] = tested on: NCI-H522
[17] = tested on: Hs-578T
[18] = tested on: NCI-H460
[19] = tested on: UACC-257
[20] = tested on: SK-MEL-5

Row | SMILES | GI50 [1] | GI50 [2] | GI50 [3] | GI50 [4] | GI50 [5] | GI50 [6] | GI50 [7] | GI50 [8] | GI50 [9] | GI50 [10] [µM] | GI50 [11] | GI50 [12] | GI50 [13] | GI50 [14] | GI50 [15] | GI50 [16] | GI50 [17] | GI50 [18] | GI50 [19] | GI50 [20]
1 | O=C(O)C(Sc1ccc(Cl)cc1)Sc1ccc(Cl)cc1 | 89.7 µM (inactive) | 25.9 µM (inactive) | 36.4 µM (inactive) | 29.7 µM (inactive) | 54.5 µM (inactive) | 71 µM (inactive) | 41.3 µM (inactive) | 44.2 µM (inactive) | 32.6 µM (inactive) | 36 | 23.7 µM (inactive) | 41.5 µM (inactive) | 43.9 µM (inactive) | 27.7 µM (inactive) | 29.9 µM (inactive) | 32.1 µM (inactive) | 38.3 µM (inactive) | 34 µM (inactive) | 44.5 µM (inactive) | 35.6 µM (inactive)
2 | O=C(O)CN1C(=O)CN=C(c2ccccn2)c2cc(Cl)ccc21 | > 100 µM (inactive) | > 100 µM (inactive) | > 100 µM (inactive) | > 100 µM (inactive) | > 100 µM (inactive) | > 100 µM (inactive) | 1.24 µM (inactive) |  | > 100 µM (inactive) | > 100 | > 100 µM (inactive) | > 100 µM (inactive) | > 100 µM (inactive) | > 100 µM (inactive) | > 100 µM (inactive) | > 100 µM (inactive) | > 100 µM (inactive) | > 100 µM (inactive) | > 100 µM (inactive) | > 100 µM (inactive)
3 | O=S(=O)(/C=C/C=C/S(=O)(=O)c1ccccc1)c1ccccc1 | 6.61 µM (inactive) | 1.44 µM (inactive) | 4.12 µM (inactive) | 1.46 µM (inactive) | 1.15 µM (inactive) | 1.17 µM (inactive) | 0.315 µM (active) | 1.35 µM (inactive) | 0.721 µM (active) | 1.2 | 1.37 µM (inactive) | 1.24 µM (inactive) | 0.573 µM (active) | 0.721 µM (active) | 9.27 µM (inactive) | 0.174 µM (active) | 2.43 µM (inactive) | 6.1 µM (inactive) | 0.733 µM (active) | 0.853 µM (active)
4 | O=C1c2ccccc2C(=O)c2c(Nc3ccc4c5c(cccc35)C(=O)c3ccccc3-4)cccc21 | > 100 µM (inactive) |  | > 100 µM (inactive) | > 100 µM (inactive) | > 100 µM (inactive) | > 100 µM (inactive) | > 100 µM (inactive) | > 100 µM (inactive) | > 100 µM (inactive) | > 100 | > 100 µM (inactive) | > 100 µM (inactive) |  | > 100 µM (inactive) | > 100 µM (inactive) | > 100 µM (inactive) | > 100 µM (inactive) | > 100 µM (inactive) | > 100 µM (inactive) | > 100 µM (inactive)
5 | COC(C)C(O)(C(=O)OCC1=CCN2CCC(O)C12)C(C)(C)O (configuration not stated) | > 100 µM (inactive) | > 100 µM (inactive) | > 100 µM (inactive) | > 100 µM (inactive) | > 100 µM (inactive) | > 100 µM (inactive) | > 100 µM (inactive) | > 100 µM (inactive) | > 100 µM (inactive) | > 100 | > 100 µM (inactive) | > 100 µM (inactive) | > 100 µM (inactive) | > 100 µM (inactive) | > 100 µM (inactive) | > 100 µM (inactive) | > 100 µM (inactive) | > 100 µM (inactive) | > 100 µM (inactive) | > 100 µM (inactive)
6 | CNC(=O)NC(CCCCNC(=O)OCc1ccccc1)C(=O)OCc1ccccc1 (configuration not stated) | 5.69 µM (inactive) | 16.3 µM (inactive) | 65.9 µM (inactive) | 47.3 µM (inactive) | > 78.2 µM (inactive) | 27 µM (inactive) | 19 µM (inactive) | 47.6 µM (inactive) | 21.1 µM (inactive) | > 96.8 | 16.6 µM (inactive) | 19.5 µM (inactive) | 61.4 µM (inactive) | 16.7 µM (inactive) | > 82 µM (inactive) | 12.6 µM (inactive) | 79.8 µM (inactive) | > 100 µM (inactive) | 16.9 µM (inactive) | 15.9 µM (inactive)
7 | COc1cc2c(cc1OC)C(=O)/C(=C/c1ccccc1)C2 | > 39.4 µM (inactive) | > 100 µM (inactive) | > 100 µM (inactive) | > 83.8 µM (inactive) | > 100 µM (inactive) | > 83 µM (inactive) | 16.3 µM (inactive) | > 74.8 µM (inactive) | > 100 µM (inactive) | > 82 | > 70 µM (inactive) | > 93.8 µM (inactive) | > 100 µM (inactive) | 30.5 µM (inactive) | > 100 µM (inactive) | 47 µM (inactive) | > 100 µM (inactive) | 53.7 µM (inactive) | > 100 µM (inactive) | 37.2 µM (inactive)
